“Also recorded” adds a separate entry of the source. Read-outs that look alike come from different tables or passages of the source.
Legend:
[1] = Multiple escalating dose study, plasma pharmacokinetics of oral suspension (Cohorts 1-3); assay type: in vivo, human
Protocol: Healthy subjects aged 18 to 55 years were treated with an oral suspension of Compound 1 to study the safety, tolerability, pharmacokinetics and pharmacodynamics of Compound 1 in healthy subjects.
The study was a randomized, double-blind, placebo-controlled multiple escalating dose study comprised of 3 cohorts that each received an oral suspension. Each cohort consisted of two groups: one group treated with Compound 1 and another treated with placebo. In each cohort, the ratio of Compound 1-treated subjects to placebo-treated subjects was 3:1.
The Compound 1-treated subjects of Cohort 1 were treated with 15.0 mg of Compound 1 once per day (QD). The Compound 1-treated subjects of Cohort 2 were treated with 30.0 mg of Compound 1 QD. The Compound 1-treated subjects of Cohort 3 were treated with 60.0 mg of Compound 1 QD.
Patients in each cohort were treated with Compound 1 for 14 consecutive days, unless dosing was halted by the Safety Review Committee (SRC). The dosing of subjects in each of the cohorts was staggered with the decision to dose escalate based on SRC review of a minimum of 14 days of observation of safety and tolerability data and review of the available plasma PK data from the preceding cohort(s). Thus, dose escalation was predicated on tolerability of the prior cohorts.
Compound 1 was administered under fasted conditions (no food or drink, except water, for at least 10 hours prior to dosing). Immediately after administration of Compound 1, the subject was be administered 240 mL water. No additional fluid intake was allowed until 1 hour after Compound 1 administration.
Cohort 1 subjects received a single 15.0 mg dose of a Compound 1 suspension on the morning of Days 1-14. Cohort 2 subjects received a single 30.0 mg dose of a Compound 1 suspension on the morning of Days 1-14. Cohort 3 subjects received a single 60.0 mg dose of a Compound 1 suspension on the morning of Days 1-14. For all cohorts, the last treatment was administered on the morning of Day 14.
Data were obtained from the blood plasma samples collected from each cohort according to the schedule provided.
Plasma samples were analyzed to determine Compound 1 concentrations using a validated assay method. Pharmacokinetic variables (including but not limited to Cmax, Tmax and AUC(0-last)) were calculated using non-compartmental analysis. PK parameters for Compound 1 were derived from the plasma concentration data using non-compartmental analysis with Phoenix™ WinNonlin® v 8.0 (Pharsight Corporation, USA).
Blood (Cohorts 1-3): For each cohort, blood samples were collected on Days 1, 2, 3, 4, 5, 6 and 14 at the following time points: Day 1 at pre-dose (0 hour), 0.25, 0.5, 0.75, 1, 1.5, 2, 2.5, 3, 4, 6, 8, 12, 16 h post-dose; Day 2 at pre-dose (24 hours), Day 3 at pre-dose (48 hours), Day 4 at pre-dose (72 hours), Day 5 at pre-dose (96 hours), Day 6 at pre-dose (120 hours); Day 14 at pre-dose 0.25, 0.5, 0.75, 1, 1.5, 2, 2.5, 3, 4, 6, 8, 12, 16, 24, 36, 48, and 72 hours. Trough level blood samples were collected on Days 2, 3, 4, 5, 6 and 14, prior to the morning dose administrations.
Descriptive statistics were calculated for plasma and urine PK parameter and concentration data and summarized by study day and time point. Arithmetic means, coefficient of variation (CV), standard deviation, median, minimum, and maximum values, and number of observations were calculated for all PK parameters and trough concentration data. Except for Tmax, the geometric mean, geometric standard deviation, and geometric CV were provided for all PK parameter and concentration data.

[2] = Example 3 Part A: oral suspension administered at 4 p.m. vs 8 p.m., plasma pharmacokinetics; assay type: in vivo, human; conditions: for AUCinf / Cmax / AUC(0-inf) / Tmax / half-life: human, in vivo; for AUCinf / Cmax / AUC(0-inf) / Tmax: po; for AUC(0-inf): AUCinf
Protocol: Patients with severe major depressive disorder (MDD) aged 18 to 65 years were treated with an oral suspension or tablet of Compound 1 to study the effect of food and time of administration on the pharmacokinetics, as well as the safety and tolerability of these formulations.
Part A is an open-label, non-randomized, fixed-sequence crossover design to evaluate Compound 1 at 2 different administration times (4 p.m., approximately 4 hours after lunch and 2 hours prior to dinner, and at 8 p.m., approximately 4 hours after dinner). 16 participants were administered an oral suspension of Compound 1.
Preliminary pharmacokinetics data from Part A, where 45 mg and 60 mg of oral suspension were administered (Cohort 1), and Part C, where 40 mg (2×20 mg), 60 mg (3×20 mg) and 80 mg (4×20 mg) of the tablet formulation were administered, have been analyzed and are summarized below.

[3] = test system: harmaline-induced tremor; assay: Rat Harmaline Induced Tremor (rHIT) model; assay type: in vivo; conditions: 0.3, 1, 3, 10 mg/kg i.p., 30 min before harmaline 30 mg/kg i.p. (FIG. 9)
Source text: A rat model of tremor (Rat Harmaline Induced Tremor; rHIT) was used to assess the impact of Compound 1 on reducing the symptoms of tremor. Male SD rats (SLAC, Shanghai, China) having a body weight of about 250 g at the time of testing were fed ad libitum and kept in a 12:12 light-dark cycle room, with the lights on from 5 a.m. to 5 p.m, throughout the study. Rats were allowed to acclimate to standard laboratory conditions for at least 5-7 days prior to the experiment.
One day prior to testing, a naive rat was placed in the testing chamber, which was a plexiglass chamber with a piezoelectric plate attached at the bottom to transduce tremor behavior into an electrical signal. The rat was placed in the chamber in order to adjust the spontaneous activity baseline signal. […]
Next, at T=0 minutes, all groups were intraperitoneally administered 30 mg/kg (5 mL/kg) of harmaline formulated in a saline vehicle. The post-harmaline effect was measured for twenty minutes (T=10 to 30 minutes). […]
Piezoelectric plate signal analysis: For the power spectral density analysis, electrical tremor signal was processed with fast Fourier transform (FFT) at a resolution of 0.5 Hz bins. […] The average maximum power density across the 8-13 Hz band in 0.5 Hz bins was also calculated. […]

[4] = test system: extrasynaptic form of GABAA receptors; assay: PAM selectivity for extrasynaptic vs synaptic GABAA receptors
[5] = Cohort 1 (15.0 mg QD), Day 14 steady state, Geo Mean
[6] = Cohort 1 (15.0 mg QD), Day 14 steady state, Mean
[7] = Cohort 1 (15.0 mg QD), Day 14 steady state, Median
[8] = Cohort 2 (30.0 mg QD), Day 14 steady state, Geo Mean
[9] = Cohort 2 (30.0 mg QD), Day 14 steady state, Mean
[10] = Cohort 3 (60.0 mg QD), Day 14 steady state, Geo Mean
[11] = oral suspension 45 mg and 60 mg

Structure (SMILES): COC[C@@]1(O)CC[C@@]2(C)[C@@H](CC[C@@H]3[C@@H]2CC[C@]2(C)[C@@H](C(=O)Cn4ccnc4)CC[C@@H]32)C1 [Compound 1, 3α-Hydroxy-3β-methoxymethyl-21-(1′-imidazolyl)-5α-pregnan-20-one]
- accumulation factor of the dosing interval (ratio of AUCDay14/AUCDay1) ([1]; Cohort 1 (15 mg QD) and Cohort 2 (30 mg QD)): approximately 1.25
- CLss/F [1, 5]: 30.497 L/h
- t1/2 [1, 5]: 14.613 h
- CLss/F [1, 6]: 31.415 L/h
- t1/2 [1, 6]: 14.772 h
- AUCinf [1, 7]: 595.2 ng·h/mL
- CLss/F [1, 7]: 30.41 L/h
- CLss/F [1, 8]: 30.178 L/h
- t1/2 [1, 8]: 12.647 h
- CLss/F [1, 9]: 30.949 L/h
- t1/2 [1, 9]: 12.701 h
- CLss/F ([1]; Cohort 2 (30.0 mg QD), Day 14 steady state, Median): 30.12 L/h
- accumulation factor of the dosing interval (ratio of AUCDay14/AUCDay1) ([1]; Cohort 3 (60 mg QD)): 0.89
- CLss/F [1, 10]: 30.398 L/h
- t1/2 [1, 10]: 12.164 h
- CLss/F ([1]; Cohort 3 (60.0 mg QD), Day 14 steady state, Mean): 32.142 L/h
- CLss/F ([1]; Cohort 3 (60.0 mg QD), Day 14 steady state, Median): 28.45 L/h
- AUC0-tau ([1]; human, in vivo, 60 mg): 2356.80 ng·h/mL
- steady state clearance ([1]; human, in vivo, 60 mg): approximately 31 L/hour
- absorption ([1]; in vivo, po): rapid absorption
- AUCinf ([2]; 45 mg): 1880 ng·h/mL
- Cmax ([2]; 45 mg): 157 ng/mL
- AUC(0-inf) ([2]; 45 mg): 1800 ng·h/mL
- Cmax ([2]; 45 mg, Cmax): 207 ng/mL
- Tmax ([2]; 45 mg): 1.5 h
- AUCinf ([2]; 60 mg): 2930 ng·h/mL
- Cmax ([2]; 60 mg): 249 ng/mL
- AUC(0-inf) ([2]; 60 mg): 2800 ng·h/mL
- Cmax ([2]; 60 mg, Cmax): 282 ng/mL
- Tmax ([2]; 60 mg): 1.5 h
- half-life ([2]; oral suspension 45 mg and 60 mg, 4 p.m. and 8 p.m., range, read-out: Mean t1/2): 11.1 to 12.6 h
- half-life ([2]; oral suspension 60 mg 4 PM (4 h after lunch, 2 h before dinner), N = 15, Mean, read-out: t1/2 (converted)): 12 h
- t1/2 ([2]; oral suspension 45 mg 4 PM (4 h after lunch, 2 h before dinner), N = 16, Mean): 12.6 h
- t1/2 ([2]; oral suspension 45 mg 8 PM (4 h after dinner), N = 15, Mean): 11.3 h
- Cmax at 8 p.m. as compared to 4 p.m. [2, 11]: reduced
- tmax at 8 p.m. as compared to 4 p.m. [2, 11]: delayed
- AUCinf between the 2 administration times ([2]; oral suspension 45 mg and 60 mg, 4 p.m. vs 8 p.m.): comparable
- t1/2 ([2]; oral suspension 60 mg 8 PM (4 h after dinner), N = 15, Mean): 11.1 h
- first post-dose timepoint with appearance of concentrations ([2]; suspension at 4 p.m. or 8 p.m.): 0.25 h
- last evaluated timepoint at which concentrations remained detectable ([2]; suspension at 4 p.m. or 8 p.m.): 72 h
- mean concentrations following administration at 4 p.m. as compared to 8 p.m. ([2]; within the first 2 to 3 hours, 45 mg and 60 mg): higher
- inhibition of harmaline-induced tremor [3]: dose-dependently inhibits; also recorded: dose dependent inhibition
- selectivity as PAM of the extrasynaptic form of GABAA receptors compared to the synaptic form [4]: approximately 10 fold

Reference: patent US20240197756A1, “METHODS OF TREATMENT WITH NEUROACTIVE STEROIDS” (priority 2021, published 2024)
